Measured values as given in patent US12679807B2 (MERCK SHARP & DOHME LLC, priority 2020, dated 2026).

Biological target: T1, GCS enzyme contained within Golgi preparations isolated from human A375 malignant melanoma skin cells (Homo sapiens, UniProt Q16739)
T1 construct: endogenous levels of GCS enzyme contained within Golgi preparations isolated from human A375 malignant melanoma skin cells; endogenous in cells; host or cells: A375 human malignant melanoma cells (crude Golgi preparation)
T1 sequence (Q16739 1-394): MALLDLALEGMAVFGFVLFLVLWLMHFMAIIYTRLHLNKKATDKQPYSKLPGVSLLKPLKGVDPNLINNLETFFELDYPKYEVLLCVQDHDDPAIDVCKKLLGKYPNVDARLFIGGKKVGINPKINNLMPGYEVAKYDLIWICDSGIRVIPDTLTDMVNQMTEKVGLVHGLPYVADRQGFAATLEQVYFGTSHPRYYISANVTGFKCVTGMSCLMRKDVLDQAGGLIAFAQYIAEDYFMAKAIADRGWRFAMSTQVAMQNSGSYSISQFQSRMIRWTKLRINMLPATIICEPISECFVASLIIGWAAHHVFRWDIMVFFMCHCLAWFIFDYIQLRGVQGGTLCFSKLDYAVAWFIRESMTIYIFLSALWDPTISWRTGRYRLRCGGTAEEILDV
Test: UDP-Glo glucosylceramide synthase biochemical assay
Conditions: crude Golgi preparation from A375 cells; C6 ceramide and UDP-glucose substrates; 20 h incubation at room temperature; UDP detected by luminescence
How it was run: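 Endogenous enzyme in A375 Golgi preparations (1.5 μg total protein) was preincubated 30 min with compound, then reacted 20 h at room temperature with UDP-glucose and ceramide.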

Structure (SMILES)	EC50 [nM]
CC(C)(O)[C@@H](C1CC1)N1Cc2cccc(-c3cccc(-c4ncon4)c3)c2C1=O [Compound 82, (R)-7-(3-(1,2,4-oxadiazol-3-yl)phenyl)-2-(1-cyclopropyl-2-hydroxy-2-methylpropyl)isoindolin-1-one]	46
CC(C)(O)[C@@H](C1CC1)N1Cc2cccc(-c3ccc(-c4ncon4)cc3)c2C1=O [Compound 83, (R)-7-(4-(1,2,4-oxadiazol-3-yl)phenyl)-2-(1-cyclopropyl-2-hydroxy-2-methylpropyl)isoindolin-1-one]	100
CN1C(=O)Cc2ccc(-c3cccc4c3C(=O)N([C@H](C3CC3)C(C)(C)O)C4)cc21 [Compound 84, (R)-6-(2-(1-cyclopropyl-2-hydroxy-2-methylpropyl)-3-oxoisoindolin-4-yl)-1-methylindolin-2-one]	4.8
CN1C(=O)Cc2cc(-c3cccc4c3C(=O)N([C@H](C3CC3)C(C)(C)O)C4)ccc21 [Compound 85, (R)-5-(2-(1-cyclopropyl-2-hydroxy-2-methylpropyl)-3-oxoisoindolin-4-yl)-1-methylindolin-2-one]	8.2
Cc1nn(C)c2ccc(-c3cccc4c3C(=O)N([C@H](C3CC3)C(C)(C)O)C4)cc12 [Compound 86, (R)-2-(1-cyclopropyl-2-hydroxy-2-methylpropyl)-7-(1,3-dimethyl-1H-indazol-5-yl)isoindolin-1-one]	0.58
Cc1cc2c(cnn2C)cc1-c1cccc2c1C(=O)N([C@H](C1CC1)C(C)(C)O)C2 [Compound 87, (R)-2-(1-cyclopropyl-2-hydroxy-2-methylpropyl)-7-(1,6-dimethyl-1H-indazol-5-yl)isoindolin-1-one]	9.5
Cc1nc(-c2ccc(-c3cccc4c3C(=O)N([C@H](C3CC3)C(C)(C)O)C4)cc2)no1 [Compound 88, (R)-2-(1-cyclopropyl-2-hydroxy-2-methylpropyl)-7-(4-(5-methyl-1,2,4-oxadiazol-3-yl)phenyl)isoindolin-1-one]	90

Further lines, results first:

EC50 [nM]	Structure (SMILES)
420	CC(C)(O)[C@@H](C1CC1)N1Cc2cccc(-c3cnn(-c4ccncc4)c3)c2C1=O [Compound 89, (R)-2-(1-cyclopropyl-2-hydroxy-2-methylpropyl)-7-(1-(pyridin-4-yl)-1H-pyrazol-4-yl)isoindolin-1-one]
2	Cc1cc(-c2ccc(-c3cccc4c3C(=O)N([C@H](C3CC3)C(C)(C)O)C4)cc2)on1 [Compound 90, (R)-2-(1-cyclopropyl-2-hydroxy-2-methylpropyl)-7-(4-(3-methylisoxazol-5-yl)phenyl)isoindolin-1-one]
520	Cc1ncc(-c2ccc(-c3cccc4c3C(=O)N([C@H](C3CC3)C(C)(C)O)C4)cc2)o1 [Compound 91, 2-[(1R)-1-cyclopropyl-2-hydroxy-2-methyl-propyl]-7-[4-(2-methyloxazol-5-yl)phenyl]isoindolin-1-one]
33	CC(C)(O)[C@@H](C1CC1)N1Cc2cccc(-c3cc(Cl)cc(C#N)n3)c2C1=O [Compound 92, 4-chloro-6-[2-[(1R)-1-cyclopropyl-2-hydroxy-2-methyl-propyl]-3-oxo-isoindolin-4-yl]pyridine-2-carbonitrile]
55	COc1cc(Cl)nc(-c2cccc3c2C(=O)N([C@H](C2CC2)C(C)(C)O)C3)c1 [Compound 93, (R)-7-(6-chloro-4-methoxypyridin-2-yl)-2-(1-cyclopropyl-2-hydroxy-2-methylpropyl)isoindolin-1-one]
24	Cn1cc(-c2ccc(-c3cccc4c3C(=O)N([C@H](C3CC3)C(C)(C)O)C4)cc2)nn1 [Compound 94, 2-[(1R)-1-cyclopropyl-2-hydroxy-2-methyl-propyl]-7-[4-(1-methyltriazol-4-yl)phenyl]isoindolin-1-one]
83	CC(C)(O)[C@@H](C1CC1)N1Cc2cccc(-c3ccc(-c4cnsc4)cc3)c2C1=O [Compound 95, (R)-2-(1-cyclopropyl-2-hydroxy-2-methylpropyl)-7-(4-(isothiazol-4-yl)phenyl)isoindolin-1-one]
